These results are taken from patent US9440953B2, “Substituted amino triazoles useful as acidic mammalian chitinase inhibitors” (OncoArendi Therapeutics Sp z o.o., priority 2014, dated 2016).

In general, IC50 refers to the midpoint of a concentration-inhibition curve.

Structures are written as SMILES.

recombinant human AMCase, sequence (Q9BZP6 22-476): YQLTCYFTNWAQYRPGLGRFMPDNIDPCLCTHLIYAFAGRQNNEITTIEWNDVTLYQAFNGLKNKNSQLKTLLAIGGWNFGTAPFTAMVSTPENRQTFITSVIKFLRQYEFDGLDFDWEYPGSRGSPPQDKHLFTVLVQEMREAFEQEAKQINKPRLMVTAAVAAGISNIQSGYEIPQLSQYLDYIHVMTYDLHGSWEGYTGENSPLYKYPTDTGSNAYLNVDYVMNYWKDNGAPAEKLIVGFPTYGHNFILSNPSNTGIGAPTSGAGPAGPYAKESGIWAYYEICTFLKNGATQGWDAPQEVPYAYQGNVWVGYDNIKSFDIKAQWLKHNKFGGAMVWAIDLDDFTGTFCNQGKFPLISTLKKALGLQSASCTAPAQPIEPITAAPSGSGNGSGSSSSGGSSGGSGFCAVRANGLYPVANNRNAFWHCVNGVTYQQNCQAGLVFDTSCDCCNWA

The assay deals with recombinant human AMCase (Homo sapiens, UniProt Q9BZP6). The assay can be described thus: Human AMCase Activity Assay. The conditions noted are these: recombinant hAMCase, 4-methylumbelliferyl B-D-N,N′-diacetylchitobioside substrate, citrate buffer pH 5.2, 37° C., 60 minutes. The assay is classed as biochemical. The method, then:
Human AMCase Activity Assay
The assay was run in the 96-well plate format, each reaction in the total volume of 100 μL. 4-Methylumbelliferyl B-D-N,N′-diacetylchitobioside hydrate was used as a substrate for the enzyme. Upon hydrolysis by AMCase, the substrate releases 4-methylumbelliferyl (4MU) that, when ionized in basic pH, emits fluorescence at 460 nm.
Briefly, 40 μL of a substrate was added to each well, followed by 10 μL of compound dilution and 50 μL of hAMCase recombinant enzyme solution. […] The fluorescence of the reaction product was measured in Perkin Elmer Envision fluorescent plate reader at an excitation wavelength of 355 nm.
For `Cc1cc(CN(CCc2ccc(Cl)cc2)C2CCN(c3nc(N)n[nH]3)CC2)ccc1C(=O)O` [Example 5, 4-(((1-(3-amino-1H-1,2,4-triazol-5-yl)piperidin-4-yl)(4-chlorophenethyl)amino)-methyl)-2-methylbenzoic acid], the half-maximal inhibitory concentration (IC50) is 1 to 10 nM.

Take `Nc1n[nH]c(N2CCC(N(CCc3ccc(Cl)cc3)CC3(C(=O)O)CC3)CC2)n1` [Example 30, 1-(((1-(3-amino-1H-1,2,4-triazol-5-yl)piperidin-4-yl)(4-chlorophenethyl)amino)-methyl)cyclopropanecarboxylic acid]: the concentration for half-maximal inhibition (IC50) lay within 1000 to 10000 nM.

`Nc1n[nH]c(N2CCC(N(CCc3ccc(Cl)cc3)C(CC(=O)O)c3ccc(Cl)cc3)CC2)n1` (stereo not shown) [Example 28, 3-((1-(3-amino-1H-1,2,4-triazol-5-yl)piperidin-4-yl)(4-chlorophenethyl)amino)-3-(4-chlorophenyl)propanoic acid]: the 50% inhibitory concentration (IC50) lay within 1000 to 10000 nM.

On to `Nc1n[nH]c(N2CCC(N(CCCC(=O)O)CCc3ccc(Cl)cc3)CC2)n1` [Example 27, 4-((1-(3-amino-1H-1,2,4-triazol-5-yl)piperidin-4-yl)(4-chlorophenethyl)-amino)butanoic acid], for which the IC50 was 100 to 1000 nM.

On to `CC(=O)NS(=O)(=O)c1ccc(CN(CCc2ccc(Br)cc2)C2CCN(c3nc(N)n[nH]3)CC2)cc1` [Example 16, N-((4-(((1-(3-amino-1H-1,2,4-triazol-5-yl)piperidin-4-yl)(4-bromophenethyl)-amino)methyl)phenyl)sulfonyl)acetamide], for which the half-inhibitory concentration (IC50) was 1 to 10 nM.

Regarding `CC(=O)NS(=O)(=O)c1cccc(CN(CCc2ccc(Br)cc2)C2CCN(c3nc(N)n[nH]3)CC2)c1` [Example 18, N-((3-(((1-(3-amino-1H-1,2,4-triazol-5-yl)piperidin-4-yl)(4-bromophenethyl)-amino)methyl)phenyl)sulfonyl)acetamide], the IC50 was 1 to 10 nM.

For the molecule `CS(=O)(=O)Nc1ccc(CN(CCc2ccc(Cl)cc2)C2CCN(c3nc(N)n[nH]3)CC2)cc1` [Example 33, N-(4-(((1-(3-amino-1H-1,2,4-triazol-5-yl)piperidin-4-yl)(4-chlorophenethyl)-amino)methyl)phenyl)methanesulfonamide], the concentration for half-maximal inhibition (IC50) lay in the range of 1 to 10 nM.

Consider `Nc1n[nH]c(N2CCC(N(CCNC(=O)c3ccccc3)CCc3ccc(Cl)cc3)CC2)n1` [Example 9, N-(2-((1-(3-amino-1H-1,2,4-triazol-5-yl)piperidin-4-yl)(4-chlorophenethyl)amino)-ethyl)benzamide], for which the concentration for half-maximal inhibition (IC50) was in the range of 10 to 100 nM.

Take `Nc1n[nH]c(N2CCC(N(CCc3ccc(Cl)cc3)CC(=O)Nc3ccccc3)CC2)n1` [Example 21, 2-((1-(3-amino-1H-1,2,4-triazol-5-yl)piperidin-4-yl)(4-chlorophenethyl)amino)-N-phenylacetamide]: the IC50 lay in the range of 100 to 1000 nM.

Consider `CC(=O)NS(=O)(=O)CCN(CCc1ccc(Cl)cc1)C1CCN(c2nc(N)n[nH]2)CC1` [Example 38, N-((2-((1-(3-amino-1H-1,2,4-triazol-5-yl)piperidin-4-yl)(4-chlorophenethyl)-amino)ethyl)sulfonyl)acetamide], for which the half-inhibitory concentration (IC50) fell in the range of 10 to 100 nM.

Turning to `CC(C)C(=O)NS(=O)(=O)c1ccc(CN(CCc2ccc(Br)cc2)C2CCN(c3nc(N)n[nH]3)CC2)cc1` [Example 17, N-((4-(((1-(3-amino-1H-1,2,4-triazol-5-yl)piperidin-4-yl)(4-bromophenethyl)-amino)methyl)phenyl)sulfonyl)isobutyramide], the concentration for half-maximal inhibition (IC50) lay in the range of 1 to 10 nM.

For the molecule `CS(=O)(=O)NCCCN(CCc1ccc(Br)cc1)C1CCN(c2nc(N)n[nH]2)CC1` [Example 23, N-(3-((1-(3-amino-1H-1,2,4-triazol-5-yl)piperidin-4-yl)(4-bromophenethyl)-amino)propyl)methanesulfonamide], the IC50 lay in the range of 1 to 10 nM.

For `Cc1ccc(S(=O)(=O)NCCCN(CCc2ccc(Br)cc2)C2CCN(c3nc(N)n[nH]3)CC2)cc1` [Example 24, N-(3-((1-(3-amino-1H-1,2,4-triazol-5-yl)piperidin-4-yl)(4-bromophenethyl)-amino)propyl)-4-methylbenzenesulfonamide], the IC50 fell in the range of 1 to 10 nM.

For `Cc1ccc(CN(CCc2ccc(Cl)cc2)C2CCN(c3nc(N)n[nH]3)CC2)cc1C(=O)O` [Example 6, 5-(((1-(3-amino-1H-1,2,4-triazol-5-yl)piperidin-4-yl)(4-chlorophenethyl)-amino)methyl)-2-methylbenzoic acid], the concentration for half-maximal inhibition (IC50) fell in the range of 10 to 100 nM.

Consider `CS(=O)(=O)NC(=O)c1cccc(CN(CCc2ccc(Cl)cc2)C2CCN(c3nc(N)n[nH]3)CC2)c1` [Example 40, 3-(((1-(3-amino-1H-1,2,4-triazol-5-yl)piperidin-4-yl)(4-chlorophenethyl)amino)-methyl)-N-(methylsulfonyl)benzamide], for which the IC50 lay within 1 to 10 nM.

For `CC(C)NC(=O)CN(CCc1ccc(Cl)cc1)C1CCN(c2nc(N)n[nH]2)CC1` [Example 22, 2-((1-(3-amino-1H-1,2,4-triazol-5-yl)piperidin-4-yl)(4-chlorophenethyl)amino)-N-isopropylacetamide], the IC50 lay within 100 to 1000 nM.

On to `Nc1n[nH]c(N2CCC(N(CCc3ccc(Cl)cc3)Cc3ccccc3C(=O)O)CC2)n1` [Example 2, 2-(((1-(3-amino-1H-1,2,4-triazol-5-yl)piperidin-4-yl)(4-chlorophenethyl)amino-)methyl)benzoic acid], for which the IC50 was 100 to 1000 nM.

In the case of `CC(C)NC(=O)NCCN(CCc1ccc(Cl)cc1)C1CCN(c2nc(N)n[nH]2)CC1` [Example 12, 1-(2-((1-(3-amino-1H-1,2,4-triazol-5-yl)piperidin-4-yl)(4-chlorophenethyl)-amino)ethyl)-3-isopropylurea], the IC50 lay within 100 to 1000 nM.

Regarding `CS(=O)(=O)NC(=O)c1cc(CN(CCc2ccc(Cl)cc2)C2CCN(c3nc(N)n[nH]3)CC2)ccc1Cl` [Example 41, 5-(((1-(3-amino-1H-1,2,4-triazol-5-yl)piperidin-4-yl)(4-chlorophenethyl)amino)-methyl)-2-chloro-N-(methylsulfonyl)benzamide], the IC50 is 10 to 100 nM.

As for `Cc1ccc(S(=O)(=O)NCCN(CCc2ccc(Br)cc2)C2CCN(c3nc(N)n[nH]3)CC2)cc1` [Example 42, N-(2-((1-(3-amino-1H-1,2,4-triazol-5-yl)piperidin-4-yl)(4-bromophenethyl)-amino)ethyl)-4-methylbenzenesulfonamide], the concentration for half-maximal inhibition (IC50) fell in the range of 1 to 10 nM.

Regarding `Nc1n[nH]c(N2CCC(N(CCc3ccc(Br)cc3)Cc3ccc(S(N)(=O)=O)cc3)CC2)n1` [Example 15, 4-(((1-(3-amino-1H-1,2,4-triazol-5-yl)piperidin-4-yl)(4-bromophenethyl)amino)-methyl)benzenesulfonamide], the half-maximal inhibitory concentration (IC50) fell in the range of 1 to 10 nM.

Consider `Nc1n[nH]c(N2CCC(N(CCc3ccc(Cl)cc3)Cc3ccc(Cl)c(C(=O)O)c3)CC2)n1` [Example 7, 5-(((1-(3-amino-1H-1,2,4-triazol-5-yl)piperidin-4-yl)(4-chlorophenethyl)amino)-methyl)-2-chlorobenzoic acid], for which the IC50 lay in the range of 1 to 10 nM.

In the case of `Nc1n[nH]c(N2CCC(N(CCc3ccc(Br)cc3)Cc3ccc(C(=O)O)cc3)CC2)n1` [Example 4, 4-(((1-(3-amino-1H-1,2,4-triazol-5-yl)piperidin-4-yl)(4-bromophenethyl)-amino)methyl)benzoic acid], the IC50 was in the range of 1 to 10 nM.

With `Nc1n[nH]c(N2CCC(N(CCc3ccc(Cl)cc3)Cc3cccc(S(=O)(=O)NCC(F)(F)F)c3)CC2)n1` [Example 19, 3-(((1-(3-amino-1H-1,2,4-triazol-5-yl)piperidin-4-yl)(4-chlorophenethyl)amino)-methyl)-N-(2,2,2-trifluoroethyl)benzenesulfonamide], the IC50 is 10 to 100 nM.

`CS(=O)(=O)Nc1cccc(CN(CCc2ccc(Cl)cc2)C2CCN(c3nc(N)n[nH]3)CC2)c1` [Example 32, N-(3-(((1-(3-amino-1H-1,2,4-triazol-5-yl)piperidin-4-yl)(4-chlorophenethyl)-amino)methyl)phenyl)methanesulfonamide]: the IC50 was in the range of 1 to 10 nM.

In the case of `CS(=O)(=O)Nc1ccccc1CN(CCc1ccc(Cl)cc1)C1CCN(c2nc(N)n[nH]2)CC1` [Example 31, N-(2-(((1-(3-amino-1H-1,2,4-triazol-5-yl)piperidin-4-yl)(4-chlorophenethyl)-amino)methyl)phenyl)methanesulfonamide], the IC50 fell in the range of 10 to 100 nM.

For `Nc1n[nH]c(N2CCC(N(CCc3ccc(Cl)cc3)CC(C(=O)O)c3ccc(Cl)cc3)CC2)n1` (stereo not shown) [Example 29, 3-((1-(3-amino-1H-1,2,4-triazol-5-yl)piperidin-4-yl)(4-chlorophenethyl)amino)-2-(4-chlorophenyl)propanoic acid], the IC50 is 10 to 100 nM.

Take `NC(=O)c1ccc(CN(CCc2ccc(Br)cc2)C2CCN(c3nc(N)n[nH]3)CC2)cc1` [Example 34, 4-(((1-(3-amino-1H-1,2,4-triazol-5-yl)piperidin-4-yl)(4-bromophenethyl)-amino)methyl)benzamide]: the IC50 fell in the range of 1 to 10 nM.

As for `Nc1n[nH]c(N2CCC(N(CCC(=O)O)CCc3ccc(Cl)cc3)CC2)n1` [Example 26, 3-((1-(3-amino-1H-1,2,4-triazol-5-yl)piperidin-4-yl)(4-chlorophenethyl)-amino)propanoic acid], the IC50 was 1000 to 10000 nM.

For the molecule `CNC(=O)c1ccc(CN(CCc2ccc(Br)cc2)C2CCN(c3nc(N)n[nH]3)CC2)cc1` [Example 35, 4-(((1-(3-amino-1H-1,2,4-triazol-5-yl)piperidin-4-yl)(4-bromophenethyl)-amino)methyl)-N-methylbenzamide], the IC50 was in the range of 1 to 10 nM.

As for `Nc1n[nH]c(N2CCC(N(CCc3ccc(Cl)cc3)Cc3nnn[nH]3)CC2)n1` [Example 43, N-((1H-tetrazol-5-yl)methyl)-1-(3-amino-1H-1,2,4-triazol-5-yl)-N-(4-chlorophenethyl)piperidin-4-amine], the IC50 was in the range of 10 to 100 nM.
